{"source": "patent US20080124400A1", "about": "“Microparticles With High Loadings Of A Bioactive Agent” (Angiotech International AG, priority 2004, published 2008)", "origin": "cited, not measured here", "key": {"[1]": {"test_system": "collagen induced arthritis", "settings": "animal model"}, "[2]": {"test_system": "normal chondrocytes and non-proliferating synoviocytes"}}}
{"molecule": "CC(=O)O[C@H]1C(=O)[C@@]2(C)[C@H]([C@H](OC(=O)c3ccccc3)[C@]3(O)C[C@H](OC(=O)[C@H](O)[C@@H](NC(=O)c4ccccc4)c4ccccc4)C(C)=C1C3(C)C)[C@]1(OC(C)=O)CO[C@@H]1C[C@@H]2O", "note": "[Paclitaxel, paclitaxel]", "values": [{"measurement": "collagen induced arthritis", "setting": "[1]", "result": "inhibits collagen induced arthritis"}, {"measurement": "AP-1 transcription activity", "setting": "AP-1", "result": "inhibits AP-1 transcription activity"}, {"measurement": "proliferation and apoptosis of synoviocytes", "setting": "synoviocytes", "result": "prevents the proliferation of and induces apoptosis in synoviocytes"}, {"measurement": "T-cell response to stimuli and T-cell function", "setting": "T-cell", "result": "decreases T-cell response to stimuli, and inhibits T-cell function"}, {"measurement": "toxicity to non-proliferating cells", "setting": "[2]", "result": "non-toxic"}, {"measurement": "neutrophil activation", "setting": "neutrophil", "result": "inhibits neutrophil activation"}]}
